Like-named read-outs stand apart in the source and are kept apart here.
Target: T1, TYK2 (Homo sapiens, UniProt P29597)
T1 construct: Degradation of TYK2 in cells was quantitatively measured using Meso Scale Discovery (MSD) technology; endogenous in cells; host or cells: OCI-LY10
Experiment: TYK2 MSD degradation in OCI-LY10 cells
Format: cell-based
Conditions: 4 to 24 hours incubation; for DC50: read-out: TYK2 MSD OCI-LY10 Rel-DC50
Method in brief: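 Cellular TYK2 levels were measured by Meso Scale Discovery sandwich detection in RIPA lysates of OCI-LY10 cells exposed 4 to 24 hours at 37° C to nine 1:3 compound doses starting at 1 to 10 μM final; dose-response fitted by four-parameter regression.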

[1] = TYK2 degradation in OCI-LY10 cells

T1 sequence (P29597 whole entry): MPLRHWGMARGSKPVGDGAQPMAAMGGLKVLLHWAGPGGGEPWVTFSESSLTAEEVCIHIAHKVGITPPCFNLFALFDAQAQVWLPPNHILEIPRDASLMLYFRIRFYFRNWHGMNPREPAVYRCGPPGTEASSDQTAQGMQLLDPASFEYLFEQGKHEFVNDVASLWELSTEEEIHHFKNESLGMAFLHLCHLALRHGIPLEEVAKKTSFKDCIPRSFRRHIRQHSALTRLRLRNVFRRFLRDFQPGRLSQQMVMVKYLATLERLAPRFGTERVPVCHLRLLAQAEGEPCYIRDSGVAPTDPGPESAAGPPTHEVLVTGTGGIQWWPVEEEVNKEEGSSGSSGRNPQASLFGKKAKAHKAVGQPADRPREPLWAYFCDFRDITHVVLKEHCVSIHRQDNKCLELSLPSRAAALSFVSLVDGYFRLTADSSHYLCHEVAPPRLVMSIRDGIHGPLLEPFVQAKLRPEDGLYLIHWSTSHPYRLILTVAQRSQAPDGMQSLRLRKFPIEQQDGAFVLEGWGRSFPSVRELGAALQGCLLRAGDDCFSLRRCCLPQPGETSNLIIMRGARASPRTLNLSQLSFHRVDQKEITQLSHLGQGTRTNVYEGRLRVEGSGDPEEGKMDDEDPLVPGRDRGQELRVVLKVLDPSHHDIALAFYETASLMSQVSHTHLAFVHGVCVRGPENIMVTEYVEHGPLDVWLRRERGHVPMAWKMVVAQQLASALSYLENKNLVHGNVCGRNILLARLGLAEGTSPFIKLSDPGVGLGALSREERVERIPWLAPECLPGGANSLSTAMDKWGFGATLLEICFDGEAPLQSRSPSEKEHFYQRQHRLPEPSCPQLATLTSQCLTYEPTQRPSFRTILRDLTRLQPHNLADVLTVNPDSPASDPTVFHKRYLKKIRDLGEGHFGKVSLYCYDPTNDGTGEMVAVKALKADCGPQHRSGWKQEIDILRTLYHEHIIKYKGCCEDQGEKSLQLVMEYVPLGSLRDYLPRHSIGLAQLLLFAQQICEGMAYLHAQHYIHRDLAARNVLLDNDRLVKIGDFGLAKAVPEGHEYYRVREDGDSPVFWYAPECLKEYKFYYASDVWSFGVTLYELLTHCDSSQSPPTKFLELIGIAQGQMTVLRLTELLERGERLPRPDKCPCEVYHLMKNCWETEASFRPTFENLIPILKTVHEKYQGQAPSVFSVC

| SMILES | TYK2 MSD OCI-LY10 Dmax % [1] | DC50 [1] [nM] | TYK2 MSD OCI-LY10 Dmax % (OCI-LY10 cells) | DC50 (OCI-LY10 cells) [nM] | Dmax [1] [%] |
| --- | --- | --- | --- | --- | --- |
| CNc1cc(N2CC3(CCN(c4ccc5c(c4)n(C)c(=O)n5C4CCC(=O)NC4=O)CC3)c3ccccc32)nn2c(C(=O)NC3CC3)cnc12 (stereo not drawn) [I-42] | D (D (<50%)) | > 100 |  |  |  |
| CNc1cc(N2CCc3c(-c4cc(CN5CCC(c6ccc7c(c6)n(C)c(=O)n7C6CCC(=O)NC6=O)C(F)(F)C5)ccn4)cccc32)nn2c(C(=O)NC3CC3)cnc12 (stereo not drawn) [I-4] | D (D (<50%)) | > 100 |  |  |  |
| CNc1cc(N2CCc3c(-c4ccc(CN5CC6(CCC(COc7ccc(C8CCC(=O)NC8=O)c(Cl)c7)CC6)C5)cn4)cccc32)nn2c(C(=O)N[C@@H]3C[C@@H]3F)cnc12 (stereo partly drawn) [I-463] |  |  | D (D (<50%)) | > 100 |  |
| CNc1cc(N2CCc3c(-c4ncc(CN5CC6(CCN(C(=O)c7cc(Cl)c(C)c(N8CCC(=O)NC8=O)c7)CC6(F)F)C5)cc4F)cccc32)nn2c(C(=O)N[C@@H]3C[C@@H]3F)cnc12 [I-1008, 6-(4-(5-((7-(3-chloro-5-(2,4-dioxotetrahydropyrimidin-1(2H)-yl)-4-methylbenzoyl)-5,5-difluoro-2,7-diazaspiro[3.5]nonan-2-yl)methyl)-3-fluoropyridin-2-yl)indolin-1-yl)-N-((1R,2S)-2-fluorocyclopropyl)-8-(methylamino)imidazo[1,2-b]pyridazine-3-carboxamide] |  | < 1 |  |  | > 90 |
| CNc1cc(N2CCc3c(CN4CC[C@@H](N5CCC6(CCN(C(=O)c7cc(N8CCC(=O)NC8=O)c(Cl)cn7)CC6)CC5)C(F)(F)C4)cc(F)cc32)nn2c(C(=O)N[C@@H]3CC[C@H]3OC)cnc12 [I-1147] | A (A (>90%)) | < 1 |  |  |  |
| CNc1cc(N2CCc3c(-c4ccc(CN5CC6(CCN(C(=O)c7cnc(C)c(N8CCC(=O)NC8=O)c7)CC6)C5)cn4)cccc32)nn2c(C(=O)N[C@@H]3C[C@@H]3F)cnc12 [I-351] | B (B (90 to >75%)) | < 1 |  |  |  |
| CNc1cc(N2CCc3c(-c4ccc(CN5CCC6(CC5)CCN(C(=O)c5ccc(Cl)c(C7CCC(=O)NC7=O)c5)CC6)cn4)cccc32)nn2c(C(=O)N[C@@H]3C[C@@H]3F)cnc12 (stereo partly drawn) [I-91] | B (B (90 to >75%)) | < 1 |  |  |  |
| CNc1cc(N2CCc3c(CN4CCC(N5CC(CN6CCN(C(=O)c7ccc(Cl)c(N8CCC(=O)NC8=O)c7)CC6)C5)C(F)(F)C4)cccc32)nn2c(C(=O)N[C@@H]3C[C@@H]3F)cnc12 (stereo partly drawn) [I-710] |  |  | B (B (90 to >75%)) | < 10 |  |
| CNc1cc(N2CCc3c(C#CCN4CCN(C5CCN(C(=O)c6ccc(Cl)c(N7CCC(=O)NC7=O)c6)CC5(F)F)CC4)cccc32)nn2c(C(=O)NC3CC3F)cnc12 (stereo not drawn) [I-846] | A (A (>90%)) | < 1 |  |  |  |
| CNc1cc(N2CCc3c(-c4cnc(CN5CC6(CCN(C(=O)c7ccc(Cl)c(N8CCC(=O)NC8=O)c7)CC6)C5)nc4)cccc32)nn2c(C(=O)N[C@@H]3C[C@@H]3F)cnc12 [I-465] |  |  | B (B (90 to >75%)) | < 10 |  |
| CNc1cc(N2CCc3c(-c4ccc(CN5CCC6(CCN(C(=O)c7cc(C)c(C)c(N8CCC(=O)NC8=O)c7)CC6)C(F)(F)C5)cn4)cccc32)nn2c(C(=O)N[C@@H]3C[C@@H]3F)cnc12 [I-797] | A (A (>90%)) | < 1 |  |  |  |
| CNc1cc(N2CCc3c(-c4ccc(CN5CC6(CCN(Cc7ccc(Cl)c(N8CCC(=O)NC8=O)c7)CC6(F)F)C5)cn4)cccc32)nn2c(C(=O)NC3CCC3OC)cnc12 (stereo not drawn) [I-1011] | B (B (90 to >75%)) | < 10 |  |  |  |
| CNc1cc(N2CCc3c2cccc3C23CC(CN4CCN(C5CCN(C(=O)c6ccc(Cl)c(N7CCC(=O)NC7=O)c6)CC5(F)F)CC4)(C2)C3)nn2c(C(=O)N[C@@H]3C[C@@H]3F)cnc12 (stereo partly drawn) [I-832] | A (A (>90%)) | < 1 |  |  |  |
| CNc1cc(N2CCc3c(-c4ccc(CN5CC6(CCN(Cc7ccc(OC)c(N8CCC(=O)NC8=O)c7)CC6(F)F)C5)cn4)cccc32)nn2c(C(=O)N[C@@H]3C[C@@H]3F)cnc12 [I-367] | C (C (75 to 50%)) | < 10 |  |  |  |
| CNc1cc(N2CCc3c(-c4ccc(CN5CCC(N6CCC7(CCN(c8cccc9c8n(C)c(=O)n9C8CCC(=O)NC8=O)CC7)CC6)C(F)(F)C5)cn4)cccc32)nn2c(C(=O)N[C@@H]3C[C@@H]3F)cnc12 (stereo partly drawn) [I-281] | C (C (75 to 50%)) | < 10 |  |  |  |
| CNc1cc(N2CCc3c(-c4ccc(CN5CC6(CCN(C(=O)c7ccc(C)c(N8CCC(=O)NC8=O)c7)CC6)C5)cn4)cccc32)nn2c(C(=O)N[C@@H]3C[C@@H]3F)cnc12 [I-63] | A (A (>90%)) | < 1 |  |  |  |
| CNc1cc(N2CCc3c(CN4CCC(N5CCC6(CCN(C(=O)c7cc(C)c(Cl)c(N8CCC(=O)NC8=O)c7)CC6)CC5)C(F)(F)C4)cccc32)nc2c(C(=O)N[C@@H]3C[C@@H]3F)cnn12 (stereo partly drawn) [I-775] |  |  | A (A (>90%)) | < 1 |  |
| CNc1cc(N2CCc3c(-c4ccc(CN5CC6(CCN(C(=O)c7ccc(Cl)c(N8CCC(=O)NC8=O)c7)CC6(F)F)C5)cn4)cccc32)nn2c(C(=O)N[C@H]3C[C@H](C)C3)cnc12 [I-888] | B (B (90 to >75%)) | < 10 |  |  |  |
